Each structure is given as a SMILES string.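 Dose response: 5 concentrations. Exposure: 48 h. Format: 96-well plates. Endpoint: linear interpolation; highest concentration if not reached. Definition used: TGI = concentration required for complete inhibition of growth.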 *1 amine or outer side, *2 acyl side, *3 side chain or, on linkers, in order; H or OH if unused. Where a SMILES comes first, the peptide text is derived from it. Bridges are numbered along the chain shown (N, C = ends). [ ]: non-standard residue; d: D form. ξ: configuration not given here. X35 = CC[C@H](C)[C@@H](N[*:1])[C@@H](O)CC(=O)O[C@H](C(=O)[C@H](C)C(=O)[*:2])C(C)C; NMeY = CN[C@@H](Cc1ccc(O)cc1)C(=O)O; dNMeL = CN[C@H](CC(C)C)C(=O)O; ξΔPro = O=C(O)C1C=CCN1 Bounds are passed on as bounds.

Common to all, as to experiment: NCI-60 cell line screen, 48 h
Experiment [1] concerns SF-539 CNS.
Experiment [2] concerns EKVX NSCLC.
Experiment [3] deals with IGROV1 ovarian.
Experiment [4] has as its system SF-268 CNS.
The test system of experiment [5] is HCT-15 colon.
In experiment [6] the test system is TK-10 renal.
Experiment [7] has as its system MDA-N.
For experiment [8], the system named is HCC-2998 colon.
Experiment [9] has as its system MALME-3M melanoma.
The test system of experiment [10] is ACHN renal.

In the case of `Cc1ccc(/C=N\NC(=O)c2ccncc2)s1`, the TGI in experiment [1], in experiment [2], in [3], in experiment [4], in [5] and in [6] was over 100 µM each time. Also, the TGI in experiment [7], in experiment [8], in [9] and in experiment [10] was over 100 µM in each case.

As for `CC1CN=C(c2ccc(CN3CCC(C4CCN(Cc5ccc(C6=NCC(C)N6)cc5)CC4)CC3)cc2)N1` (stereo not drawn), the TGI in [1] is 37.7 µM; in [2], 47.2 µM; in experiment [3], over 100 µM; in [4] it was 53.7 µM; in experiment [5] it was 94.7 µM; in experiment [6], 57.5 µM. Moreover, the TGI in [7] was 47.3 µM; in [8] it was 30.9 µM; in experiment [9], 63 µM; in experiment [10], 75.9 µM.

With `CC1CN=C(c2ccc(-c3nc(-c4ccc(C5=NCC(C)N5)cc4)nc(N(C)C)n3)cc2)N1` (stereo not drawn), the TGI was determined as 2.2 µM in experiment [1]; 8.67 µM in experiment [2]; 18 µM in [3]; 6.53 µM in experiment [4]; 33.9 µM in experiment [5]; 11.5 µM in experiment [6]. Further, the TGI in experiment [7] amounted to 4.03 µM; in experiment [8], 3.76 µM; in [9] it was 8.87 µM; in experiment [10], 11.5 µM.

Turning to `COc1ccccc1NC(=S)N/N=C/c1ccccn1`, the TGI was 5.07 µM in [1]; 5.08 µM in experiment [2]; 3.59 µM in [4]; 29 µM in [5]; over 46.4 µM in [6]; over 46.4 µM in experiment [7]. For the same molecule, the TGI in experiment [8] was 32.9 µM; in experiment [9], over 24.3 µM; in experiment [10], 8.9 µM.

Take `CC(C)(Cc1ccccc1)N1C(=O)N1C(C)(C)Cc1ccccc1`: the TGI in experiment [1] is over 100 µM; in experiment [2] it was over 100 µM; in [3], over 100 µM; in [4], over 100 µM; in experiment [5], 68.2 µM; in experiment [6] it was over 100 µM. Further, the TGI in [7] is over 100 µM; in [8], over 100 µM; in experiment [9], 98.4 µM.

In the case of `C[C@]12CC[C@H]3[C@@H](CCC4=C(Br)C(=O)C=C[C@@]43O)[C@@H]1CCC2=O`, the TGI in experiment [1] is over 100 µM; in experiment [2] it was over 100 µM; in experiment [3] it was over 100 µM; in experiment [4] it was over 100 µM; in [5], 52.7 µM; in [6] it was 94.2 µM. Further, the TGI in [7], in experiment [9] and in [10] was over 100 µM in each case.

In the case of `O=[N+]([O-])c1ccc2c(c1)n1c(N3CCCC3)[n+]3ccccc3c1c1c3cccc[n+]3c(N3CCCC3)n21`, the TGI in [1] was over 100 µM; in experiment [2] it was over 100 µM; in experiment [3], over 100 µM; in experiment [4], 42.6 µM; in experiment [5], over 100 µM; in [6], over 100 µM. The TGI in [7], in experiment [8] and in experiment [9] was over 100 µM in each case.

Consider `COc1cc2oc(=O)cc(C)c2cc1OC`, for which the TGI in experiment [1], in experiment [2], in experiment [3], in experiment [4], in [5] and in experiment [6] was over 100 µM each time. Moreover, the TGI in experiment [7], in [9] and in [10] was over 100 µM in each case.

Take `COc1cc2c(c(OC)c1)C(=O)O[C@H](C)CCCC/C=C/C2`: the TGI is 25.9 µM in experiment [1]; 29.6 µM in [2]; over 31.1 µM in [3]; over 66.9 µM in [5]; over 33.8 µM in experiment [6]; 26.4 µM in [7]. Also, the values for the TGI in experiment [8], in experiment [9] and in experiment [10] were over 32.9 µM, 31.3 µM and over 30.6 µM, respectively.

On to `CC[C@H](C)[C@H]1NC(=O)[C@@H](NC(=O)[C@@H](CC(C)C)N(C)C(=O)C2C=CCN2)[C@@H](C)OC(=O)[C@H](Cc2ccc(OC)cc2)N(C)C(=O)[C@@H]2CCCN2C(=O)[C@H](CC(C)C)NC(=O)[C@@H](C)C(=O)[C@H](C(C)C)OC(=O)C[C@@H]1O` (stereo partly drawn) (H-[ξΔPro][dNMeL]T[X35]LP[NMeY](Me); ester 3-C), for which the TGI in experiment [2] amounted to 0.168 µM; in [3] it was 0.115 µM; in experiment [4], 0.00802 µM; in experiment [5] it was 1.78 µM; in experiment [6] it was 0.0516 µM; in experiment [7], 0.081 µM. Moreover, the TGI in experiment [8] is 0.0488 µM; in experiment [9] it was 0.0146 µM; in experiment [10] it was 0.061 µM.

As to `Cc1nc(Nc2nc3ccccc3[nH]2)nc(Cl)c1CCCl`, the TGI in experiment [1], in [2], in experiment [3], in experiment [4], in experiment [5] and in [6] was over 100 µM throughout. The TGI in experiment [7], in [9] and in experiment [10] was over 100 µM each time.

As to `COc1cc(S(=O)(=O)Nc2ccc(-c3csc(/N=C\c4ccccc4)n3)cc2)ccc1Cl`, the TGI in experiment [1], in experiment [2], in experiment [3], in experiment [4], in [5] and in experiment [7] was over 100 µM throughout. The TGI in experiment [9] and in experiment [10] was over 100 µM in each case.

Turning to `COC(=O)[C@](C)(Cc1ccccc1)NC(=O)[C@@H](C)N1[C@@H](c2ccccc2)COC1(C)C`, the TGI in experiment [1], in experiment [2], in experiment [3], in experiment [4], in experiment [5] and in experiment [6] was over 100 µM throughout. Besides, the TGI in experiment [7], in [9] and in experiment [10] was over 100 µM each time.

As for `Cn1c2ccc(C3=NCCN3)cc2c2cc(C3=NCCN3)ccc21`, the TGI in experiment [1], in experiment [2], in [3], in [4], in experiment [5] and in experiment [6] was over 100 µM throughout. In addition, the TGI was over 100 µM in experiment [7], 61 µM in experiment [9] and over 100 µM in [10].

These data come from PubChem BioAssay (NCI).
